In PMC7460240 (Biomedicines, 2020):
≈ marks a conversion by molar mass, not a printed value. Structures can show the parent of a compound that is named as a salt.

Experiments:
[1] = system: H295R cells; assay: Cytotoxicity assay (neutral red, 48 h) on H295R cells; assay type: cell-based, human
Method: (§1) Cytotoxicity assays on H295R cells were carried out as previously described. Briefly, H295R cells were grown in 96-well plates to achieve 70% to 80% confluence. […] An amount of 100 µL of medium containing increasing concentrations of dxr was then added. […] After 48 h, cells were incubated 3 h at 37 °C with neutral red (NR) solution following the manufacturer’s protocol. Absorbance was measured in a microplate reader (Multiskan Go Microplate Spectrophotometer from Thermo Fisher Scientific, Illkirch, France).

[2] = system: H295R cells; assay: cells; details: Homo sapiens, NCI-H295R, 168 h, read-out: Dxr-IC50 (proliferation), astemizole 0 µM
[3] = molecular target: T1, Ptch1 (Homo sapiens, UniProt Q13635); assay: Screening on the resistance to doxorubicin of yeast expressing human Ptch1 (growth, OD600); assay type: cell-based; parameters: expressed in transfected cells; host or cells: Saccharomyces cerevisiae strain K699; details: 10 µM compound; for effect on resistance/growth of hPtch1-expressing yeast in the presence of dxr: 10 µM dxr, 18 °C, about 72 h
T1 sequence (Q13635 1-1447): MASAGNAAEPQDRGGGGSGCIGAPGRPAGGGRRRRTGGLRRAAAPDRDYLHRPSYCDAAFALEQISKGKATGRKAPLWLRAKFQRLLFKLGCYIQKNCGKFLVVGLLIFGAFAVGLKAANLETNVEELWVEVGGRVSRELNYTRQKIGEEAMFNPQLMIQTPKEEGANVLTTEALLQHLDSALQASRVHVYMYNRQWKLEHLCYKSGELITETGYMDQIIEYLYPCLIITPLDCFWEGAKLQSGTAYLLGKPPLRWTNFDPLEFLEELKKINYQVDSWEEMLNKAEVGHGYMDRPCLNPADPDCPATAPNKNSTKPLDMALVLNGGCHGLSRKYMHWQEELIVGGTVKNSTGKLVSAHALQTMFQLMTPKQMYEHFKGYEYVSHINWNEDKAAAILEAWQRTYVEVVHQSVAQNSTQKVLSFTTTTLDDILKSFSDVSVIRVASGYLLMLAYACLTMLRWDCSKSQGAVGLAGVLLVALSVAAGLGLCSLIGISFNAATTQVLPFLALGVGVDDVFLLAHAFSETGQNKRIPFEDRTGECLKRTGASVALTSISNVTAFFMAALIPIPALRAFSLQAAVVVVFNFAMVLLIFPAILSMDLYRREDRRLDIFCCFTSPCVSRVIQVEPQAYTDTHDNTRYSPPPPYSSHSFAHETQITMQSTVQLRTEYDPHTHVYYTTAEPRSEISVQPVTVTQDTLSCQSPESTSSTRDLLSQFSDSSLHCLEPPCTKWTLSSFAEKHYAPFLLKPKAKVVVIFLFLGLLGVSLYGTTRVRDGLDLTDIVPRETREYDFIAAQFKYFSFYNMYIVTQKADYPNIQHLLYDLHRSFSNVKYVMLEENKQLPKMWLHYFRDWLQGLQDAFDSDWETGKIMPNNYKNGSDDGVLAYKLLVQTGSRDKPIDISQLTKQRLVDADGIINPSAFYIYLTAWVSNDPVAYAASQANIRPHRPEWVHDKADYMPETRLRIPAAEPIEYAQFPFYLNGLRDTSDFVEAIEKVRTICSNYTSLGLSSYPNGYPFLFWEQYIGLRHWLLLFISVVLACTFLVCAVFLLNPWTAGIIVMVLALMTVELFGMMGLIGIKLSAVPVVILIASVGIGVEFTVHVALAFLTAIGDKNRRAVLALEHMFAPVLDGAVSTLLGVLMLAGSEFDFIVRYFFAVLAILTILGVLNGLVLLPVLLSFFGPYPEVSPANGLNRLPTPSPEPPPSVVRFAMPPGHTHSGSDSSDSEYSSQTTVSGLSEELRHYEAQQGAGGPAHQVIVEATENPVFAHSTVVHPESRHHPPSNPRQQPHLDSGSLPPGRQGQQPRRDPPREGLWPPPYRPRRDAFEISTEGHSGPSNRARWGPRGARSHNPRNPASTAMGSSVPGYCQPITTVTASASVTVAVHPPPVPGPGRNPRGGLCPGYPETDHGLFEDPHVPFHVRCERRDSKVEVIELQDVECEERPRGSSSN
Method: The screening of molecules on yeast was carried out as described in [18]. Briefly, S. cerevisiae expressing human Ptch1 were grown at 30 °C up to an OD600 between 1 and 2in minimal medium containing 2% of glucose and amino acid cocktail without leucine, and then diluted in rich medium containing 2% glucose in 96-well plates. An amount of 10 µM of molecules to be tested was added in 8 wells (10 molecules can be tested on one plate) and 10 µM of dxr was added to half of the wells. Plates were incubated at 18 °C on a shaker at 1250 rpm (microtiter plate shaker SSL5 Stuart) and absorbance at 600 nm was recorded for about 72 h.
Figure 1 P136 inhibits doxorubicin efflux activity of hPtch1 when expressed in yeast. (A) P136 inhibits the resistance of hPtch1-expressing yeast to doxorubicin. hPtch1-expressing yeast were grown in the presence of 10 µM of P136, P298 or P375, and in the presence or absence of 10 µM doxorubicin (dxr). DMSO was used as control. The growth of yeast was measured by absorbance at 600 nm. (B) P136 inhibits the efflux of doxorubicin of hPtch1-expressing yeast. hPtch1-expressing yeast and control yeast were incubated with dxr for 2 h and fixed for dxr loading control or resuspended in buffer containing DMSO or 10 μM P136 for 10 min, fixed and deposited on a coverslip for analysis by fluorescence microscopy. The dxr fluorescence of 100 yeast for each condition from 3 independent experiments was quantified using the ImageJ software. […] Significance is attained at p < 0.05 (*) (***: p < 0.0005, ****: p < 0.00005, ns: no significant difference).

[4] = Metabolic stability in human liver microsomes; assay type: in vitro ADME; details: NADPH, read-out: HLM T1/2
Method: (§2) Profiling and PK studies were performed by GalenAuxi Co (Oxford, UK) as previously described. […] Plasma samples (50 μL) were collected via the facial vein at 3, 10, 30, 60, 120, 240, 360 and 1440 min post-dose for the IV group, and at 10, 30, 60, 120, 240, 360, 480 and 1440 min post-dose for the PO group in K2EDTA-coated tubes, mixed gently and centrifuged at 2500 g for 15 min at 4 °C within 1 h after collection. For control animals, blood was collected by cardiac puncture. Plasma samples were prepared in acetonitrile for LC-MS/MS analysis. Peak areas were recorded and the concentrations of the test compound in the unknown plasma samples were determined using the respective calibration curve.
(§3) We determined its lipophilicity described by the distribution constant LogD, its solubility, which is an important parameter since water is the solvent of choice for the liquid pharmaceutical formulation, its metabolic stability measured in the presence of rat and human microsomes and NADPH, and its ability to bind to proteins.

[5] = Cytotoxicity assay (neutral red, 48 h) on H295R cells; assay type: cell-based, human; details: human, H295R cells at 80% confluence
Method: as §1

[6] = system: caspase 3/7 activity; assay: Apoptosis measurement (Caspase-Glo 3/7) in H295R cells; assay type: cell-based, human; details: 48 h, 0.5 µM astemizole, no dxr
Method: Quantification of caspase 3/7 activity was performed using the luminescent assay Caspase-Glo 3/7 (Promega, Charbonnières-les-Bains, France) and a luminometer (Glomax 96 Microplate Luminometer from Promega, Charbonnières-les-Bains, France) following the manufacturer’s protocol.

[7] = Cell viability of MeWo melanoma cells (48 h); details: human, MeWo melanoma cells
Method: (§7) Cell viability was measured after 48 hours
(§8) doxorubicin (dxr) 2 μM. The graphs reported are representative of more than 3 independent
(§9) Cell viability was measured after 48 hours treatment
(§10) the mean ± SEM values of 3 independent experiments. Significance, calculated using ANOVA
(§11) multiple comparison test and Bonferroni correction, was attained at p < 0.05 (*) (***: p < 0.0005).

[8] = system: MeWo cells; assay: Cell viability of MeWo melanoma cells (48 h); details: MeWo cells, 48 h, serial dilutions of astemizole with 2 µM dxr
Method: as §7, §8, §9, §10, §11

[9] = system: H295R cells; assay: Spheroid formation in 3D culture of H295R cells; assay type: cell-based, human; details: 14 days
Method: H295R cells were cultured in DMEM/F-12, 2% NuSerum, 1% ITS Plus and penicillin/streptomycin supplemented with 20 µg/µL EGF and 20 µg/µL FGF. […] After 14 days, images of each well were taken using a cell imaging multi-mode reader (Cytation 5 from Bio Tek, Colmar, France). Then, 100 µL of the medium was removed from each well and 100 µL of Cell Titer Glow 3D reagent (Promega) was added. Spheroids were disrupted according to the protocol from the Cell Titer Glow 3D Viability Assay (Promega) and viability was measured in a microplate reader at 550 nm (Multiskan Go Microplate Spectrophotometer, Thermo Scientific).

[10] = Human plasma protein binding; assay type: in vitro ADME; details: read-out: Ppb
[11] = system: H295R cells; assay: Clone formation of H295R cells (14 days, crystal violet); assay type: cell-based, human; details: combination of dxr and astemizole
Method: After 14 days, clones were stained with crystal violet and pictures were taken. Cells were then solubilized and absorbance was measured in a microplate reader at 550 nm (Multiskan Go Microplate Spectrophotometer, Thermo Scientific, Illkirch, France).

[12] = molecular target: T1, Ptch1; assay: BODIPY-cholesterol efflux measurement in H295R cells; assay type: cell-based; parameters: endogenous in cells; host or cells: H295R; details: H295R cells loaded with BODIPY-cholesterol 2 h, then 30 min efflux buffer with 10 µM astemizole
Method: (§4) After 2 h, some coverslips were immediately fixed with PFA and mounted in SlowFade Gold antifade reagent containing DAPI (Invitrogen) for loading control.
(§5) Images were acquired with a Zeiss Axioplan 2 fluorescence microscope coupled to a digital charge-coupled device camera using a 63X objective for yeast or a 40X /1.3 Plan NeoFluar objective for cells, and filters for Alexa 594 or FITC for dxr or Bo-chol analysis, respectively. Dxr or Bo-chol fluorescence was quantified using the ImageJ software. About 100 yeast/cells (from three wells) were scored per condition.
(§6) After 2 h, 3 coverslips were fixed for dxr or Bo-chol loading control. […] Images were acquired using fluorescence microscopy and a 40x objective. Fluorescence was quantified using the Image J software for 100 cells per condition.

[13] = system: MeWo cells; assay: Doxorubicin efflux in MeWo melanoma cells; assay type: cell-based, human; details: 30 µM astemizole, 30 min
[14] = system: H295R cells; assay: Synergy analysis of drug combination (Chou-Talalay) on H295R cells; assay type: cell-based, human; details: 48 h, dxr with 1 µM astemizole
Method: Synergy analysis was performed using the Chou-Talalay method for drug combination as described in [21, 22]. […] Normalized isobolograms and Chou-Talalay’s plots (Fa-CI plot were Fa is the fraction affected and CI is the combination index) were created using the Compusyn Software (Version 1.0 downloaded from www.combosyn.com). These allow quantitative determination of drug interactions, where CI < 1 (below the diagonal), =1 (diagonal) and >1 (above the diagonal) indicate synergism, additive effect and antagonism, respectively. Dose-reduction index (DRI) is reported.

[15] = system: H295R cells
[16] = molecular target: T2, hPtch1 (Homo sapiens, UniProt Q13635); assay: Doxorubicin efflux measurement in hPtch1-expressing yeast (fluorescence microscopy); assay type: cell-based; details: 10 µM P136 in efflux buffer, 10 min, 2-deoxy-D-glucose
T2 construct: expressed in transfected cells; host or cells: Saccharomyces cerevisiae strain K699
T2 sequence (Q13635 1-1447): T1 sequence (Q13635 1-1447)
Method: Efflux measurements were carried out as described in [19]. On yeast: hPtch1-expressing yeasts or control yeasts were grown to an OD600 of 5, centrifuged, washed with cold water and resuspended in HEPES–NaOH buffer (pH 7.0) containing 5 mM 2-deoxy-D-glucose and 10 µM dxr for 2 h at 4 °C. […] Yeasts were centrifuged, resuspended in 4% PFA and deposited on a coverslip with SlowFade Gold antifade reagent containing DAPI (Invitrogen).
as §5
Figure 1 P136 inhibits doxorubicin efflux activity of hPtch1 when expressed in yeast. […] The growth of yeast was measured by absorbance at 600 nm. (B) P136 inhibits the efflux of doxorubicin of hPtch1-expressing yeast. hPtch1-expressing yeast and control yeast were incubated with dxr for 2 h and fixed for dxr loading control or resuspended in buffer containing DMSO or 10 μM P136 for 10 min, fixed and deposited on a coverslip for analysis by fluorescence microscopy. […]

[17] = system: HaCaT keratinocytes; assay: Cell viability of HaCaT keratinocytes (48 h); assay type: cell-based, human; details: 10 µM astemizole
[18] = Distribution coefficient octanol/PBS pH 7.4; assay type: physicochemical; details: read-out: LogD7.4
[19] = molecular target: T1, Ptch1; assay: Doxorubicin efflux measurement in H295R cells; assay type: cell-based; parameters: endogenous in cells; host or cells: H295R; details: H295R cells loaded with 10 µM dxr 2 h, then 30 min efflux buffer with 10 µM astemizole
Method: as §4, §5, §6

[20] = Metabolic stability in rat liver microsomes; assay type: in vitro ADME; details: NADPH, read-out: RLM T1/2
Method: as §2, §3

[21] = Solubility in aqueous buffer (PBS, pH 7.4); assay type: physicochemical

COc1cccc2c1C(=O)c1c(O)c3c(c(O)c1C2=O)C[C@@](O)(C(=O)CO)C[C@@H]3O[C@H]1C[C@H](N)[C@H](O)[C@H](C)O1 [Dxr, Doxorubicin hydrochloride]
IC50 ([1]; Homo sapiens, NCI-H295R, read-out: Dxr-IC50 Without Astemizole, H295R cells, neutral red, mean ± SEM of 3 experiments): 17.3 ± 3.6 µM
IC50 [2]: 0.1 ± 0.02 µM

CSc1ccc2c(c1)C(N1CCN(C)CC1)Cc1ccccc1S2 (stereo not drawn) [P375, methiothepin maleate]
effect on resistance/growth of hPtch1-expressing yeast in the presence of dxr [3]: significantly inhibited the resistance of hPtch1-expressing yeast to dxr

COc1ccc(CCN2CCC(Nc3nc4ccccc4n3Cc3ccc(F)cc3)CC2)cc1 [astemizole, Astemizole]
half-life [4]: > 60 min
IC50 at 48 h [5]: ~7 µM
increase of the efficacy of dxr combined with etoposide and mitotane (EDM) by astemizole ([1]; H295R cells, 1 µM astemizole, dxr + 10 µM etoposide + 10 µM mitotane): about eight times
increase of the cytotoxicity of dxr by astemizole ([1]; H295R cells, 1 µM astemizole, dxr alone): about 10 times
toxicity of astemizole by itself to ACC cells ([1]; H295R cells, 1 µM astemizole, no dxr): not toxic to ACC cells by itself
effect of astemizole by itself on caspase 3/7 activity [6]: does not affect caspase 3/7 activity by itself
IC50 at 48 h [7]: ~7 µM
effect on dxr cytotoxicity in melanoma cells [8]: increases dxr cytotoxicity
spheroid size with combination dxr + astemizole [9]: significantly smaller
fraction unbound [10]: 0.01
increase of the anti-clonogenic activity of dxr [11]: increased four times
Bo-chol kept inside the cells [12]: about 95%
effect on dxr efflux from melanoma cells [13]: inhibits dxr efflux from melanoma cells
cooperativity indices (CI), dxr and astemizole [14]: below 1
effect of astemizole by itself on cell viability ([15]; 7 days, 0.5 µM astemizole, no dxr): does not affect cell viability by itself
effect of astemizole alone on proliferation ([15]; serial dilution of astemizole for 7 days): inhibited their proliferation
effect on amount of dxr in hPtch1-expressing yeast (dxr efflux) [16]: increases the amount of dxr in hPtch1-expressing yeast significantly more than in control yeast
effect on keratinocyte viability [17]: very slight effect on keratinocyte viability
logD [18]: 3.5
dxr kept inside the cells [19]: about 73%
half-life [20]: 31 min
effect on resistance/growth of hPtch1-expressing yeast in the presence of dxr [3]: able to inhibit the growth of hPtch1-expressing yeast in the presence of dxr
effect on growth of hPtch1-expressing yeast in the absence of dxr ([3]; no dxr): without effects on the growth of hPtch1-expressing yeast in the absence of dxr
solubility [21]: 22.1 µM (≈ 10.1 µg/mL)
